Legend:
LC3B-II = assay: LC3B immunoblot in U87-MG cells; type: cell-based; details: for amount of LC3B-II: TCH-165 10 μM 16 h or BafA1 100 nM 4 h, alone (FIG. 2A)
Protocol: (§1) U87-MG cells at 70% confluency were treated with test compounds at the reported concentration and time. Cells were washed with warm PBS and trypsinized with 0.25% Trypsin-EDTA. Samples were collected in chilled PBS, pelleted and washed twice with chilled PBS. Cells were then lysed with celLytic buffer supplemented with 1% sigma fast inhibitor cocktail. Total protein was quantified by BCA reagent, and 20 μg resolved on a 12% (LC3B) or 30 μg on a 4-12% (p62, ATG5, beclin1) Tris-glycine SDS-PAGE, and immunoblotted with antigen specific antibody (1:1000), and goat anti-rabbit HRP (1:1000). Blots were developed with ECL western reagent and imaged with x-ray film.
To determine whether TCH-165 affects LC3B-II formation, glioblastoma astrocytoma (U87-MG) cells were treated with TCH-165 and the level of LC3B-II monitored by immunoblot. U87-MG cells were incubated with different concentrations of TCH-165 and immunoblotted with LC3B-specific antibody. U87-MG cells were also treated with a specific amount of TCH-165 (10 μM) and evaluated at 0, 6, 12, and 24 hours. Cell lysates were immunoblotted with LC3B-specific antibody and anti-GAPDH as a loading control.
U87-MG cells were treated with either vehicle (DMSO) or TCH-165 (10 μM) for 16 h, followed by treatment with bafilomycin A1 (100 nM) for 4 h. Conversion of LC3BI to LC3BII was detected by immunoblot with LC3B-specific antibody.

HS BD = assay: Tumor cell growth inhibition, HS BD; type: cell-based; details: Canis lupus familiaris; Canine Histiocytic Sarcoma cell line HS BD
Protocol: (§2) The pIC50 values shown in Table 1, herein, was determined as the negative log of the amount of compound required to inhibit tumor cell growth by 50% (the IC50). […] A pIC50 of 4 indicates an IC50 of 10-4.

HS PJ = assay: Tumor cell growth inhibition, HS PJ; type: cell-based; details: Canis lupus familiaris; Canine Histiocytic Sarcoma cell line HS PJ
Protocol: as §2

HS DH82 = assay: Tumor cell growth inhibition, HS DH82; type: cell-based; details: Canis lupus familiaris; Canine Histiocytic Sarcoma cell line HS DH82
Protocol: as §2

cOS D17 = assay: Tumor cell growth inhibition, cOS D17; type: cell-based; details: Canis lupus familiaris; Canine Osteosarcoma cell line cOS D17
Protocol: as §2

cOS Abrams = assay: Tumor cell growth inhibition, cOS Abrams; type: cell-based; details: Canis lupus familiaris; Canine Osteosarcoma cell line cOS Abrams
Protocol: as §2

cOS Gracie = assay: Tumor cell growth inhibition, cOS Gracie; type: cell-based; details: Canis lupus familiaris; Canine Osteosarcoma cell line cOS Gracie
Protocol: as §2

cOS Ginger = assay: Tumor cell growth inhibition, cOS Ginger; type: cell-based; details: Canis lupus familiaris; Canine Osteosarcoma cell line cOS Ginger
Protocol: as §2

cOS Brandie primary = assay: Tumor cell growth inhibition, cOS Brandie primary; type: cell-based; details: Canis lupus familiaris; Canine Osteosarcoma cell line cOS Brandie primary
Protocol: as §2

cOS Brandie mets = assay: Tumor cell growth inhibition, cOS Brandie mets; type: cell-based; details: Canis lupus familiaris; Canine Osteosarcoma cell line cOS Brandie mets
Protocol: as §2

cOS Blaz = assay: Tumor cell growth inhibition, cOS Blaz; type: cell-based; details: Canis lupus familiaris; Canine Osteosarcoma cell line cOS Blaz
Protocol: as §2

Normal FB1 = assay: Cell growth inhibition, Normal FB1; type: cell-based; details: Canis lupus familiaris; Canine Normal Firbroblasts Normal FB1
Protocol: as §2

Normal FB2 = assay: Cell growth inhibition, Normal FB2; type: cell-based; details: Canis lupus familiaris; Canine Normal Firbroblasts Normal FB2
Protocol: as §2

Fel SCC1 = assay: Tumor cell growth inhibition, Fel SCC1; type: cell-based; details: Felis catus; Feline Squamous Cell Carcinoma cell line Fel SCC1
Protocol: as §2

Fel SCC2 = assay: Tumor cell growth inhibition, Fel SCC2; type: cell-based; details: Felis catus, SCC-2; Feline Squamous Cell Carcinoma cell line Fel SCC2
Protocol: as §2

Fel SCC3 = assay: Tumor cell growth inhibition, Fel SCC3; type: cell-based; details: Felis catus, SCC-3; Feline Squamous Cell Carcinoma cell line Fel SCC3
Protocol: as §2

hOS Saos2 = assay: Tumor cell growth inhibition, hOS Saos2; type: cell-based; details: SAOS-2; Human Osteosarcoma cell line hOS Saos2
Protocol: as §2

hOS U2OS = assay: Tumor cell growth inhibition, hOS U2OS; type: cell-based; details: Human Osteosarcoma cell line hOS U2OS
Protocol: as §2

hOS MG63 = assay: Tumor cell growth inhibition, hOS MG63; type: cell-based; details: MG-63; Human Osteosarcoma cell line hOS MG63
Protocol: as §2

Hela cells = assay: Tumor cell growth inhibition, Hela cells; type: cell-based; details: Human Cervical Adenocarcinoma
Protocol: as §2

U87-MG cells [1] = assay: Cell viability assay (MTS assay); type: cell-based; details: 72 h
Protocol: FIG. 5B graphically illustrates the viability of glioblastoma cells treated with different concentrations of TCH-165 or TCH-023 for 72 h. MTS reagent was added to quantify cell viability and the absorbance measured at 490 nm 2 h later. Absorbance readings are expressed as percentage of vehicle control for three independent experiments and data are graphed as mean±SD.
FIG. 5D is a bar graph showing the viability of glioblastoma cells treated with different concentrations of TCH-165 or temozolomide for 72 h. MTS reagent was then added and absorbance measured at 490 nm 2 h later. Absorbance readings are expressed as percentage of vehicle control for three independent experiments and data are graphed as mean±SD.
U87-MG cells were seeded in a clear 96-well plate at a density of 1.0×10^4 cells per well. Cells were treated with different concentrations of TCH-165 or temozolomide for 72 h. MTS solution (20 μL) was then added and incubated under cell culture conditions for 2 h. Absorbance was read at 490 nm and expressed as a percentage of vehicle control.

MCT C2 = assay: Tumor cell growth inhibition, MCT C2; type: cell-based; details: Canis lupus familiaris; Canine Mastocytoma cell line MCT C2
Protocol: as §2

HEK293 = assay: Cell growth inhibition, HEK293; type: cell-based; details: Human Embryonic Kidney HEK293
Protocol: as §2

U87-MG cells [2] = assay: Cytotoxicity assay (LDH assay); type: cell-based; details: Homo sapiens, U-87 MG, LDH-based assay, 72 h, FIG. 5E-5F
Protocol: U87-MG cells were seeded in a clear 96-well plate at a density of 1.0×10^4 cells per well. Cells were treated with different concentrations of TCH-165 or temozolomide for 72 h. Culture medium was then assayed for lactate dehydrogenase (LDH) activity according to the manufacturer's protocol. Briefly, cells for maximum toxicity were treated with 10 μL of lysis buffer 45 minutes prior to enzyme assay. Culture media (50 μL) were then transferred to new 96 well plate and 50 μL of substrate mix added. The reaction mixtures were incubated at RT protected from light for 30 minutes. Stop solution (50 μL) was then added and absorbance read at 490 nm. Toxicity was expressed as a fraction of sample treated with lysis buffer.

LC3B = assay: Confocal immunofluorescence of LC3B in U87-MG cells; type: cell-based
Protocol: (§3) U87-MG cells were plated in complete medium at 2.5×10^5 cells/well of a four-chamber glass slide overnight. Fresh medium (500 μL) containing the test compound was added and allowed to incubate for the desire time under cell culture conditions. Cells were washed with chilled immunofluorescent (IF) wash buffer (1×PBS, pH 8.0) and fixed with methanol at −20° C. for 10 minutes. Cells were then washed 2× with IF wash buffer and incubated in blocking buffer (1×PBS, 5% normal goat serum, 0.3% Triton X-100 pH 8.0) for 1 h at RT. Blocking buffer was replaced with primary antibody diluted in dilution buffer (1×PBS, 1% BSA, 0.3% Triton X-100 pH 8.0) overnight (1:200) at 40° C. Primary antibody was washed off 3× and incubated in anti-rabbit Alexa Fluor 488 (1:500) and/or anti-mouse Alexa Fluor 594 for 1 h in the dark, at RT. Secondary antibodies were then washed off (3×) and nuclei stained with Hoechst (4 μg/mL) at RT, for 20 minutes. DNA dye was rinsed off and slides mounted in Prolong Gold and allowed to cure overnight at RT, in the dark. Slides were sealed with nail polish, and LC3B, LAMP1 and p62 punctae detected with a 60× Plan Apo oil objective on a Nikon C2+ or Nikon A1 confocal laser microscope.
LC3B polypeptides were stained with LC3B antibody/Alexa Fluor 488 secondary (green) and the cellular nuclei were stained with Hoechst DNA dye (blue).

[3] = system: lysosome associated membrane protein (LAMP)-1; assay: Confocal immunofluorescence of LAMP1 in U87-MG cells; type: cell-based; details: 10 μM, 24 h, FIG. 1D
Protocol: as §3

p62 [4] = assay: p62 immunoblot in U87-MG cells; type: cell-based; details: concentration (FIG. 2C) and time (10 μM; 0-24 h, FIG. 2D) dependent
Protocol: as §1

p62 [5] = assay: Confocal immunofluorescence of p62 in U87-MG cells; type: cell-based; details: 10 μM, 24 hr, immunofluorescence imaging
Protocol: All statistical analyses were performed on densitometry data (imageJ) of five individual experiments. Data are graphed as mean±SD and were analyzed by One-Way ANOVA with Bonferroni's multiple comparison test or by student t-test for 2 samples (ns=not significant, *p<0.05, *p<0.01, **p<0.001).
U87-MG cells were plated in complete medium at 2.5×10^5 cells/well of a four-chamber glass slide overnight. Fresh medium (500 μL) containing the test compound was added and allowed to incubate for the desire time under cell culture conditions. Cells were washed with chilled immunofluorescent (IF) wash buffer (1×PBS, pH 8.0) and fixed with methanol at −20° C. for 10 minutes. Cells were then washed 2× with IF wash buffer and incubated in blocking buffer (1×PBS, 5% normal goat serum, 0.3% Triton X-100 pH 8.0) for 1 h at RT. Blocking buffer was replaced with primary antibody diluted in dilution buffer (1×PBS, 1% BSA, 0.3% Triton X-100 pH 8.0) overnight (1:200) at 40° C. Primary antibody was washed off 3× and incubated in anti-rabbit Alexa Fluor 488 (1:500) and/or anti-mouse Alexa Fluor 594 for 1 h in the dark, at RT. Secondary antibodies were then washed off (3×) and nuclei stained with Hoechst (4 μg/mL) at RT, for 20 minutes. […] Slides were sealed with nail polish, and LC3B, LAMP1 and p62 punctae detected with a 60× Plan Apo oil objective on a Nikon C2+ or Nikon A1 confocal laser microscope.

autolysosome formation [6] = assay: Tandem RFP-GFP-LC3B autophagy sensor in U87-MG cells; type: cell-based; details: 10 μM, 24 h, FIG. 3A
Protocol: By combining an acid insensitive red fluorescent protein (RFP) with an acid sensitive green fluorescent protein (GFP), the conversion of autophagosomes (with neutral pH) to an autolysosome (with acidic pH) can be visualized by monitoring the specific loss of the GFP fluorescence upon acidification of the autophagosome following lysosomal fusion.
U87-MG cells were transduced with 30 particles per cell of tandem-RFP-GFP-LC3B and cultured for 24 h. Cells were then incubated with either vehicle or TCH-165 (10 μM) for an additional 24 h. Cells were fixed with 4% formaldehyde, counter stained with Hoechts DNA dye, and imaged on a Nikon C2 confocal microscope using standard filter sets for blue dye, GFP and RFP.

autolysosome formation [7] = assay: Co-localization of LC3B with LAMP1 in U87MG cells; type: cell-based; details: 10 μM, 24 h
Protocol: as §3
Co-localization of LC3B with LAMP1 was therefore examined to distinguish inhibition of autolysosome formation from autolysosome de-acidification. […]

[8] = system: lysosomes of HEK293T cells; assay: Lysosome de-acidification live imaging (LysoSensor yellow/blue dextran, LAMP1-RFP); type: cell-based, Human; details: cells expressing LAMP1-RFP; TCH-165 10 μM, chloroquine 100 μM
Protocol: HEK293T cells cultured on cover glass slides were transduced with 30 particles per cell of LAMP1-RFP and cultured for 24 h. Cells were then incubated with either vehicle, TCH-165 (10 μM) or chloroquine (100 μM) for 12 h. LysoSensor Yellow/Blue dextran, 10,000 MW, Anionic (1 mg/mL) was then added for a further 12 h and cells imaged with an upright 60× Plan Apo oil objective on a Nikon A1 confocal microscope using standard filter sets for RFP, blue and yellow dyes.
Lysosensor yellow/blue dextran is a pH sensitive dye that is […] (neutral pH). Lysosomes were distinguished from other acidic organelles by imaging with a combination of lysosensor yellow/blue dextran and LAMP1-RFP.

beclin-1, ATG5 and ATG12 = assay: Immunoblot of autophagic regulators in U87-MG cells; type: cell-based; details: 24 h, FIG. 4
Protocol: as §1

[9] = dog, in vivo

CO/C1=C\C(C)=C\[C@@H](C)[C@@H](O)[C@@H](C)C/C(C)=C/C=C/[C@H](OC)[C@@H]([C@@H](C)[C@@H](O)[C@H](C)[C@@]2(O)C[C@@H](O)[C@H](C)[C@@H](C(C)C)O2)OC1=O [BafA1, bafilomycin A1, reference compound]
amount of LC3B-II (LC3B-II; U87-MG): significant increase

CCOC(=O)[C@]1(c2ccccc2)N=C(c2ccccc2)N(Cc2ccccc2)[C@@H]1c1ccccc1 [TCH-013]
IC50 (HS BD): 5.01 µM | IC50 (HS PJ): 3.98 µM | IC50 (HS DH82): 10 µM | IC50 (cOS D17): 20 µM | IC50 (cOS Abrams): 15.8 µM | IC50 (cOS Gracie): 6.31 µM | IC50 (cOS Ginger): 3.16 µM | IC50 (cOS Brandie primary): 10 µM | IC50 (cOS Brandie mets): 15.8 µM | IC50 (cOS Blaz): 12.6 µM | IC50 (Normal FB1): 200 µM | IC50 (Normal FB2): 39.8 µM | IC50 (Fel SCC1): 10 µM | IC50 (Fel SCC2): 200 µM | IC50 (Fel SCC3): 50.1 µM | IC50 (hOS Saos2): 5.01 µM | IC50 (hOS U2OS): 15.8 µM | IC50 (hOS MG63): 20 µM | IC50 (Hela cells): 10 µM

CCOC(=O)[C@]1(c2ccccc2)N=C(c2ccccc2)N[C@@H]1c1ccccc1 [TCH-023, reference compound]
induction of cell death (U87-MG cells [1]; U87-MG): did not induce any cell death | LC3B-II accumulation (LC3B-II; U87-MG, structurally related control): no effect | inhibition of autophagy (LC3B immunoblot) (LC3B-II; glioblastoma cells, 10 μM, 24 h, FIG. 5C): did not inhibit autophagy

CCOC(=O)[C@]1(c2ccccc2)N=C(c2ccc(OC)cc2)N(Cc2ccccc2)[C@@H]1c1ccc(NCc2ccccc2)cc1 [TCH-165]
IC50 (HS BD): 6.31 µM | IC50 (HS PJ): 3.16 µM | IC50 (HS DH82): 2 µM | IC50 (cOS D17): 6.31 µM | IC50 (cOS Abrams): 12.6 µM | IC50 (cOS Gracie): 2 µM | IC50 (cOS Ginger): 7.94 µM | IC50 (cOS Brandie primary): 3.16 µM | IC50 (cOS Brandie mets): 3.98 µM | IC50 (cOS Blaz): 6.31 µM | IC50 (MCT C2): 100 µM | IC50 (Normal FB1): 200 µM | IC50 (Normal FB2): 20 µM | IC50 (Fel SCC1): 2 µM | IC50 (Fel SCC2): 25.1 µM | IC50 (Fel SCC3): 200 µM | IC50 (hOS Saos2): 3.16 µM | IC50 (hOS U2OS): 5.01 µM | IC50 (hOS MG63): 3.16 µM | IC50 (Hela cells): 7.94 µM | IC50 (HEK293): 2 µM | GI50 (U87-MG cells [1]; Homo sapiens, U-87 MG, U87-MG, MTS-based assay, FIG. 5B): 4.5 µM | GI50 (U87-MG cells [2]): 7 µM | LC3B-II levels versus TCH-165 alone (LC3B-II; U87-MG, TCH-165 10 μM 16 h followed by BafA1 100 nM 4 h): did not further increase | amount of LC3B-II (LC3B-II; U87-MG): significant increase | LC3B-II levels (LC3B-II; U87-MG, different concentrations, 10 μM at 0, 6, 12, 24 h (FIG. 1A, 1B)): increases LC3B-II levels | number of LC3B punctate (LC3B; 10 μM, 16 hours, FIG. 1C): significant increase | number of autophagic vacuoles (LC3B; torin1 100 nM 4 h followed by TCH-165 10 μM 16 h, FIG. 2B): significantly increased | number of lysosomes (LAMP1 staining) [3]: increased numbers of lysosomes | p62 level (p62 [4]): increase in p62 | p62 punctae (p62 [5]): increase in p62 punctae | GFP and RFP fluorescence of vacuoles in RFP-GFP-LC3B cells (autolysosome formation [6]): retained both GFP and RFP positive vacuoles | Co-localization of LC3B and LAMP1 (autolysosome formation [7]): not observed | lysosensor yellow/blue dextran fluorescence of lysosomes [8]: mainly had red/blue vacuoles | effect on expression of beclin-1, ATG5 and ATG12 (beclin-1, ATG5 and ATG12): did not appear to have any significant effect | tolerance / signs of toxicity [9]: without showing any clinical or biochemical signs of toxicity

Cn1nnc2c(C(N)=O)ncn2c1=O [TMZ, temozolomide]
U87-MG cells killed (U87-MG cells [1]; 1 mM, FIG. 5D): 54%

CCN(CC)CCCC(C)Nc1ccnc2cc(Cl)ccc12 (centres unmarked) [chloroquine, reference compound]
lysosensor yellow/blue dextran fluorescence of lysosomes [8]: shifted the fluorescence to the yellow spectrum

CCC(=O)N1CCN(c2ccc(-n3c(=O)ccc4cnc5ccc(-c6cnc7ccccc7c6)cc5c43)cc2C(F)(F)F)CC1 [torin1, reference compound]
accumulation of autophagic vacuoles (LC3B; torin1 100 nM alone, FIG. 2B): modest accumulation
